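Grown in 96-well plates, cells were treated for 48 hours with each compound at five concentrations. Insufficient inhibition: endpoint recorded as highest concentration tested. GI50 is the concentration that inhibits growth by half. TGI: total growth inhibition.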
How the values were obtained:
Experiment in all cases: growth of human tumour cells (NCI), 48 h
HOP-92 NSCLC = tested on: HOP-92 NSCLC
LOX IMVI melanoma = tested on: LOX IMVI melanoma
PC-3 prostate = tested on: PC-3 prostate
HCT-15 colon = tested on: HCT-15 colon
SK-OV-3 ovarian = tested on: SK-OV-3 ovarian
ACHN renal = tested on: ACHN renal
HOP-62 NSCLC = tested on: HOP-62 NSCLC
MCF7 breast = tested on: MCF7 breast
SF-295 CNS = tested on: SF-295 CNS
RXF 393 renal = tested on: RXF 393 renal

Cn1cc(C2=C(c3cn(CCCCCSC(=N)N)c4ccccc34)C(=O)NC2=O)c2ccccc21 was tested, and the GI50 (HOP-92 NSCLC) was 3.27 µM, the TGI (HOP-92 NSCLC) was 7.21 µM and the GI50 (LOX IMVI melanoma) was 2.92 µM. For the same molecule, the TGI (LOX IMVI melanoma) was 6.48 µM, the GI50 (PC-3 prostate) was 2.68 µM and the TGI (PC-3 prostate) was 6.02 µM. For the same molecule, the GI50 (HCT-15 colon) was 3.8 µM, the TGI (HCT-15 colon) was 8.03 µM and the GI50 (SK-OV-3 ovarian) was 2.99 µM. The TGI (SK-OV-3 ovarian) was 6.16 µM, the GI50 (ACHN renal) was 3.54 µM and the TGI (ACHN renal) was 6.94 µM. It also gave a GI50 (HOP-62 NSCLC) of 3.96 µM, a TGI (HOP-62 NSCLC) of 7.59 µM and a GI50 (MCF7 breast) of 1.22 µM. For the same molecule, the TGI (MCF7 breast) was 4.97 µM, the GI50 (SF-295 CNS) was 1.76 µM and the TGI (SF-295 CNS) was 5.38 µM. For the same molecule, the GI50 (RXF 393 renal) was 2.55 µM and the TGI (RXF 393 renal) was 5.68 µM.

Source: PubChem BioAssay (NCI)
